Measurements from publication PMC10439028, “SGLT5 is the renal transporter for 1,5-anhydroglucitol, a major player in two rare forms of neutropenia” (Cellular and Molecular Life Sciences: CMLS, 2023).
Entries after “also recorded” stand apart in the source; their conditions may differ. Like-named read-outs stand apart in the source and are kept apart here.

Key:
Type in all cases: cell-based
[1] = biological target: T1, human SGLT4 (Homo sapiens, UniProt Q2M3M2); experiment: Radioactive uptake assay (saturation kinetics) in HEK293T cells stably overexpressing human SGLT4
T1 construct: expressed in transfected cells
T1 sequence (Q2M3M2 1-681): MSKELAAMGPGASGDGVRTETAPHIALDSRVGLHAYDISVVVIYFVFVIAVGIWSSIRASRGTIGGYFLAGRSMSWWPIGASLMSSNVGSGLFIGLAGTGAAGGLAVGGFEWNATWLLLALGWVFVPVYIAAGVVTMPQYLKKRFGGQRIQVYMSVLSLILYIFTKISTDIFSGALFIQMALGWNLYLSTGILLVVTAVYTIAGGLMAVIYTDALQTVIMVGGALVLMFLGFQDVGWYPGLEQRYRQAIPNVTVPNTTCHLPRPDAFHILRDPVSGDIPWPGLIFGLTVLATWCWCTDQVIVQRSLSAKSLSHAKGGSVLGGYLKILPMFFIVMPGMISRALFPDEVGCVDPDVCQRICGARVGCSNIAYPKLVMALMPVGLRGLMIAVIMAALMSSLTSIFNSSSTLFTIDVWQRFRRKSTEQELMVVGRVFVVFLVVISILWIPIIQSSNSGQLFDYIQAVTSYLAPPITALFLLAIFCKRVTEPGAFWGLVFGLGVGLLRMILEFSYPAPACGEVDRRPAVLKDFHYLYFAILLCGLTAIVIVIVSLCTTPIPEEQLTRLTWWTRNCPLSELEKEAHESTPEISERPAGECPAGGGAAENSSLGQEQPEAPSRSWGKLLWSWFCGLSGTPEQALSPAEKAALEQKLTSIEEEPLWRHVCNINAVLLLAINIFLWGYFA
From the text: This assay was used to study (1) the transport of 1,5-AG or mannose by the HEK293T model cell lines that stably overexpressed the various transporters or by the transiently transfected HEK293T cells using JetPEI® as a transfection agent prepared as described above and (2) the substrate specificity of each transporter.
(§1) For a typical transporter experiment we proceeded as follows. […] To minimize cell loss during the various washing steps in the radioactive uptake experiments, the wells where the cells were seeded were previously coated with poly- D-lysine, which improved their adhesion to the plastic surface of the wells. For this, each well of the 24-well plates was treated with 200 µl of a 0.01% poly-L-lysine solution for 10 min, washed 3 times with 1 ml of sterilized water and left to dry for 2 h. Only then could the 24-well plates be seeded with the appropriate cell lines and cultured overnight at 37 °C in 5% CO2.
On day two, the radioactive uptake assay could be performed. The cell culture media was removed by aspiration and cells were incubated for 20 min at 37 °C and 5% CO2 with a basal medium (10 mM HEPES, pH 7.4, 1 mM CaCl2, 1 mM MgCl2, 2 mM KCl) containing 140 mM choline chloride to deplete intracellular […] ions. This was subsequently replaced with the uptake medium (basal medium + 140 mM NaCl, 25 μM cytochalasin B, 1 mg/ml BSA) containing either radioactive U-[^14C]-mannose (15,000 cpm/well) or 2-[^3H]-1,5-AG (30,000 cpm/well) and respectively, non-radioactive mannose or 1,5-AG, at the required concentration in the experiment. […]
(§2) Once the uptake medium was added to the cells, the plates were incubated at 37 °C in 5% CO2 during the required time. […] In each experiment, the transport activities were calculated after subtracting a “blank” value, corresponding to the radioactivity in the appropriate control cells (HEK293T cells that were stably or transiently transfected with one of the parent plasmids pEF6/MycHisA, pEF6HisB, pUB82 or pUB83 with no inserted cDNA) that were analyzed in parallel.

[2] = biological target: T1, human SGLT4; experiment: Inhibition of 10 µM radiolabelled mannose transport in HEK293T cells overexpressing human SGLT4; settings: substrate 10 μM mannose
Protocol: as §1
(§3) On day two, the radioactive uptake assay could be performed. The cell culture media was removed by aspiration and cells were incubated for 20 min at 37 °C and 5% CO2 with a basal medium (10 mM HEPES, pH 7.4, 1 mM CaCl2, 1 mM MgCl2, 2 mM KCl) containing 140 mM choline chloride to deplete intracellular […] ions. This was subsequently replaced with the uptake medium (basal medium + 140 mM NaCl, 25 μM cytochalasin B, 1 mg/ml BSA) containing either radioactive U-[^14C]-mannose (15,000 cpm/well) or 2-[^3H]-1,5-AG (30,000 cpm/well) and respectively, non-radioactive mannose or 1,5-AG, at the required concentration in the experiment. Importantly, when measuring the transport of mannose, the uptake media also contained 0.5 mM glucose. This resulted from the need to reduce the background transport of mannose in control HEK293T cells in order to optimize the transport assay for this sugar in our model cell lines. Consequently, after testing various inhibitors (Supplementary Fig. 1), 0.5 mM glucose + 25 µM cytochalasin B appeared as the best combination to decrease efficiently the endogenous transport of mannose in control cells without affecting the transport of mannose in model cell lines overexpressing SGLT4 and SGLT5. Therefore in the radioactive uptake assays for mannose, the uptake medium was: basal uptake medium + 140 mM NaCl, 25 μM cytochalasin B, 0.5 mM glucose and 1 mg/ml BSA to which we added U-[^12C + ^14C]-mannose as described above.
as §2
(§4) The transport experiments to study the specificity of SGLT4 or SGLT5, were performed in the presence of 10 µM U-[^14C + ^12C]-mannose (for SGLT4) or 2-[^3H + ^1H]-1,5-AG (for SGLT5) and increasing concentrations of various sugars tested. The transport experiments to study the inhibition of empagliflozin, dapagliflozin or remogliflozin, on the transport of 1,5-AG by SGLT5 or its variants were performed in the presence of 10 µM 2-[^3H + ^1H]-1,5-AG and increasing concentrations of the various gliflozins tested.

[3] = biological target: T2, human SGLT5 (Homo sapiens, UniProt A0PJK1); experiment: Inhibition of 10 µM radiolabelled 1,5-AG transport in HEK293T cells overexpressing human SGLT5
T2 construct: expressed in transfected cells
T2 sequence (A0PJK1 1-596): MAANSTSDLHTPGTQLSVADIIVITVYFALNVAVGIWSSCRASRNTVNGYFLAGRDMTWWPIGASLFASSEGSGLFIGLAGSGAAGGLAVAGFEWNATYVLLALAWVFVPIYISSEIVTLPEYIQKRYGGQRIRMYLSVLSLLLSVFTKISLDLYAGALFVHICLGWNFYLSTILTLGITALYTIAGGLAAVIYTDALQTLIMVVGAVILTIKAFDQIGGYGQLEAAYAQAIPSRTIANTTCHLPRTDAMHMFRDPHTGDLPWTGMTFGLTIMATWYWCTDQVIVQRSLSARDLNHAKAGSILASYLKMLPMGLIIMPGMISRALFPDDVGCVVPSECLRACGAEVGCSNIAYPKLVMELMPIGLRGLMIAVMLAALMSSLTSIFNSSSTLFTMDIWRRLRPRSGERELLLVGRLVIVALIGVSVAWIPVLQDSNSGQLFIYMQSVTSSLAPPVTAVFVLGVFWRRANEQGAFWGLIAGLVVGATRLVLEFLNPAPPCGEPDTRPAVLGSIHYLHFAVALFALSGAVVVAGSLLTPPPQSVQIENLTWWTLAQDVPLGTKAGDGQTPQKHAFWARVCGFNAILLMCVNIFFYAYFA
Protocol: as §1, §3, §2, §4

[4] = substrate 10 μM 1,5-AG, unlabelled sugars, Fig. 3C, read-out: hSGLT5 IC50

IC50 ([3]; 10 µM 2-[1H+3H]-1,5-AG, Fig. 5C, read-out: IC50 for SGLT5-mediated 1,5-AG transport (gliflozins)) [µM]	Structure (SMILES)	transport of 1,5-AG by human SGLT4 ([1]; concentrations in the physiological range)	hSGLT4 inhibition with 10 mM inhibitor ([2]; 10 mM inhibitor)	IC50 ([3]; 10 µM 2-[1H+3H]-1,5-AG, Supplementary Fig. 7, read-out: IC50 for 1,5-AG, SGLT5-WT) [µM]	preference of 1,5-AG over glucose, difference in Ki ([3]; SGLT5) [fold]	IC50 [3, 4] [µM]	SGLT4 better than SGLT5 to transport mannose ([1]; assuming similar expression of the transporters in the cell lines)	hSGLT4 Vmax ([1]; transport of the labelled substrate, Fig. 2B) [pmol/min/10^5 cells]	IC50 ([2]; Fig. 3C, read-out: hSGLT4 IC50) [µM]
–	OC[C@H]1OC[C@H](O)[C@@H](O)[C@@H]1O [1,5-AG, 1,5-anhydroglucitol]	does not transport; also recorded: undetectable	no inhibition	162	20	167	–	–	–
–	OC[C@H]1OC(O)[C@@H](O)[C@@H](O)[C@@H]1O (stereo partly shown) [Mannose, mannose]	–	–	–	–	380	approximately tenfold better	16.6 ± 0.5	125
0.7	OC[C@H]1O[C@@H](c2ccc(Cl)c(Cc3ccc(O[C@H]4CCOC4)cc3)c2)[C@H](O)[C@@H](O)[C@@H]1O [empagliflozin]	–	–	–	–	–	–	–	–
